Assay results: ChEMBL document CHEMBL3885861, “Open TG-GATES”

Species on record: Rattus norvegicus
Experiment: Open TG-GATES - Regimen: Daily Repeat
Format: toxicity, organism-based, Sprague-Dawley
Set-up: regimen Daily Repeat, gender Male, age 6 weeks
Conditions: in vivo, po, 30 mg/kg, route gavage, dose level Middle; for APTT / Bas / Eos / Fbg / Hb / Ht / Lym / MCH / MCHC / MCV / Mono / Neu / PT / Plat / RBC / Ret / WBC: tissue Blood; for KIDNEY_L / KIDNEY_R / KIDNEY_TOTAL: tissue Kidney; for LIVER: tissue Liver; for A/G / ALP / ALT / AST / BUN / CRE / Ca / Cl / DBIL / GLC / IP / K / LDH / Na / PL / RALB / TBIL / TC / TG / TP / gamma-GTP: tissue Plasma

**Q.** What does the source list for `CCCc1cc(=O)[nH]c(=S)[nH]1` [PROPYLTHIOURACIL]?
**A.** TERMINAL_BW (72 h, time 3 day): 205.6 g; APTT (72 h, time 3 day): 15.9 s; Bas (72 h, time 3 day): 0%; Eos (72 h, time 3 day): 0.4%; Fbg (72 h, time 3 day): 242.4 mg/dL; Hb (72 h, time 3 day): 13.6 g/dL; Ht (72 h, time 3 day): 40.9%; Lym (72 h, time 3 day): 73%; MCH (72 h, time 3 day): 21.9 pg; MCHC (72 h, time 3 day): 33.3%; MCV (72 h, time 3 day): 65.7 fL; Mono (72 h, time 3 day): 7.4%; Neu (72 h, time 3 day): 19.2%; PT (72 h, time 3 day): 12.2 s; Plat (72 h, time 3 day): 114 x10_4/uL; RBC (72 h, time 3 day): 623 x10_4/ul; Ret (72 h, time 3 day): 6.7%; WBC (72 h, time 3 day): 122.6 x10_2/uL; KIDNEY_L (72 h, time 3 day): 0.9 g; KIDNEY_R (72 h, time 3 day): 0.9 g; KIDNEY_TOTAL (72 h, time 3 day): 1.8 g; LIVER (72 h, time 3 day): 11.4 g; A/G (72 h, time 3 day): 1.8; ALP (72 h, time 3 day): 907.2 IU/L; ALT (72 h, time 3 day): 36 IU/L; AST (72 h, time 3 day): 64 IU/L; BUN (72 h, time 3 day): 18.2 mg/dL; CRE (72 h, time 3 day): 0.5 mg/dL; Ca (72 h, time 3 day): 11.3 mg/dL; Cl (72 h, time 3 day): 106 meq/L; DBIL (72 h, time 3 day): 0.024 mg/dL; GLC (72 h, time 3 day): 192 mg/dL; IP (72 h, time 3 day): 7.6 mg/dL; K (72 h, time 3 day): 4.6 meq/L; LDH (72 h, time 3 day): 150.8 IU/L; Na (72 h, time 3 day): 138.4 meq/L; PL (72 h, time 3 day): 183 mg/dL; RALB (72 h, time 3 day): 3.9 g/dL; TBIL (72 h, time 3 day): 0.3 mg/dL; TC (72 h, time 3 day): 106.4 mg/dL; TG (72 h, time 3 day): 97 mg/dL; TP (72 h, time 3 day): 6 g/dL; gamma-GTP (72 h, time 3 day): 1.2 IU/L; TERMINAL_BW ([…], time 7 day): 228.6 g; TERMINAL_BW ([…], time 14 day): 248.6 g; TERMINAL_BW ([…], time 28 day): 242.7 g; APTT ([…], time 7 day): 16.2 s; Bas ([…], time 7 day): 0%; Eos ([…], time 7 day): 0.2%; Fbg ([…], time 7 day): 264 mg/dL; Hb ([…], time 7 day): 13.7 g/dL; Ht ([…], time 7 day): 40.3%; Lym ([…], time 7 day): 82.4%; MCH ([…], time 7 day): 21.5 pg; MCHC ([…], time 7 day): 34.1%; MCV ([…], time 7 day): 63.2 fL; Mono ([…], time 7 day): 8.4%; Neu ([…], time 7 day): 9%; PT ([…], time 7 day): 12.9 s; Plat ([…], time 7 day): 122.5 x10_4/uL; RBC ([…], time 7 day): 638 x10_4/ul; Ret ([…], time 7 day): 3.7%; WBC ([…], time 7 day): 123.8 x10_2/uL; APTT ([…], time 14 day): 16.6 s; Bas ([…], time 14 day): 0%; Eos ([…], time 14 day): 0.2%; Fbg ([…], time 14 day): 204.2 mg/dL; Hb ([…], time 14 day): 14.8 g/dL; Ht ([…], time 14 day): 43.8%; Lym ([…], time 14 day): 86.2%; MCH ([…], time 14 day): 21 pg; MCHC ([…], time 14 day): 33.7%; MCV ([…], time 14 day): 62.2 fL; Mono ([…], time 14 day): 3.6%; Neu ([…], time 14 day): 10%; PT ([…], time 14 day): 13.8 s; Plat ([…], time 14 day): 89 x10_4/uL; RBC ([…], time 14 day): 705.4 x10_4/ul; Ret ([…], time 14 day): 1.5%; WBC ([…], time 14 day): 134 x10_2/uL; APTT ([…], time 28 day): 15.1 s; Bas ([…], time 28 day): 0%; Eos ([…], time 28 day): 1%; Fbg ([…], time 28 day): 171 mg/dL; Hb ([…], time 28 day): 15.8 g/dL; Ht ([…], time 28 day): 46.9%; Lym ([…], time 28 day): 85.2%; MCH ([…], time 28 day): 19.5 pg; MCHC ([…], time 28 day): 33.7%; MCV ([…], time 28 day): 57.7 fL; Mono ([…], time 28 day): 3%; Neu ([…], time 28 day): 10.8%; PT ([…], time 28 day): 14.2 s; Plat ([…], time 28 day): 82.1 x10_4/uL; RBC ([…], time 28 day): 813.2 x10_4/ul; Ret ([…], time 28 day): 0.6%; WBC ([…], time 28 day): 63 x10_2/uL; KIDNEY_L ([…], time 7 day): 0.9 g; KIDNEY_R ([…], time 7 day): 0.9 g; KIDNEY_TOTAL ([…], time 7 day): 1.8 g; KIDNEY_L ([…], time 14 day): 0.9 g; KIDNEY_R ([…], time 14 day): 0.9 g; KIDNEY_TOTAL ([…], time 14 day): 1.9 g; KIDNEY_L ([…], time 28 day): 0.8 g; KIDNEY_R ([…], time 28 day): 0.8 g; KIDNEY_TOTAL ([…], time 28 day): 1.6 g; LIVER ([…], time 7 day): 12.4 g; LIVER ([…], time 14 day): 11.5 g; LIVER ([…], time 28 day): 9.6 g; A/G ([…], time 7 day): 1.7; ALP ([…], time 7 day): 735.2 IU/L; ALT ([…], time 7 day): 31.6 IU/L; AST ([…], time 7 day): 54.8 IU/L; BUN ([…], time 7 day): 21.8 mg/dL; CRE ([…], time 7 day): 0.5 mg/dL; Ca ([…], time 7 day): 11.6 mg/dL; Cl ([…], time 7 day): 106 meq/L; DBIL ([…], time 7 day): 0.018 mg/dL; GLC ([…], time 7 day): 173.6 mg/dL; IP ([…], time 7 day): 6.8 mg/dL; K ([…], time 7 day): 4.6 meq/L; LDH ([…], time 7 day): 85.8 IU/L; Na ([…], time 7 day): 140.6 meq/L; PL ([…], time 7 day): 170.6 mg/dL; RALB ([…], time 7 day): 4.2 g/dL; TBIL ([…], time 7 day): 0.3 mg/dL; TC ([…], time 7 day): 111.2 mg/dL; TG ([…], time 7 day): 80.2 mg/dL; TP ([…], time 7 day): 6.7 g/dL; gamma-GTP ([…], time 7 day): 2.2 IU/L; A/G ([…], time 14 day): 1.7; ALP ([…], time 14 day): 562.2 IU/L; ALT ([…], time 14 day): 27.6 IU/L; AST ([…], time 14 day): 51.2 IU/L; BUN ([…], time 14 day): 24.2 mg/dL; CRE ([…], time 14 day): 0.7 mg/dL; Ca ([…], time 14 day): 11.5 mg/dL; Cl ([…], time 14 day): 106.8 meq/L; DBIL ([…], time 14 day): 0.004 mg/dL; GLC ([…], time 14 day): 180.6 mg/dL; IP ([…], time 14 day): 6.4 mg/dL; K ([…], time 14 day): 4 meq/L; LDH ([…], time 14 day): 70.2 IU/L; Na ([…], time 14 day): 141.4 meq/L; PL ([…], time 14 day): 157.4 mg/dL; RALB ([…], time 14 day): 4.3 g/dL; TBIL ([…], time 14 day): 0.2 mg/dL; TC ([…], time 14 day): 103 mg/dL; TG ([…], time 14 day): 43.4 mg/dL; TP ([…], time 14 day): 6.9 g/dL; gamma-GTP ([…], time 14 day): 2.2 IU/L; A/G ([…], time 28 day): 2; ALP ([…], time 28 day): 475.4 IU/L; ALT ([…], time 28 day): 34 IU/L; AST ([…], time 28 day): 58.4 IU/L; BUN ([…], time 28 day): 27.2 mg/dL; CRE ([…], time 28 day): 0.7 mg/dL; Ca ([…], time 28 day): 10.8 mg/dL; Cl ([…], time 28 day): 108.8 meq/L; DBIL ([…], time 28 day): 0.062 mg/dL; GLC ([…], time 28 day): 168.6 mg/dL; IP ([…], time 28 day): 5.4 mg/dL; K ([…], time 28 day): 4.3 meq/L; LDH ([…], time 28 day): 71.4 IU/L; Na ([…], time 28 day): 142.2 meq/L; PL ([…], time 28 day): 165.8 mg/dL; RALB ([…], time 28 day): 4.5 g/dL; TBIL ([…], time 28 day): 0.2 mg/dL; TC ([…], time 28 day): 105.4 mg/dL; TG ([…], time 28 day): 46.8 mg/dL; TP ([…], time 28 day): 6.8 g/dL; gamma-GTP ([…], time 28 day): 2.4 IU/L
